What was measured:
[1] = target: T1, P-glycoprotein (P-gp, ABCB1) (Homo sapiens, UniProt P08183); test: inside-out vesicular transport inhibition assay with tritiated probe substrate; also Caco-2 bidirectional transport ([…]); type: biochemical
T1 construct: inside-out membrane vesicles prepared from HEK293 cells overexpressing human P-gp

[2] = target: T1, P-glycoprotein (P-gp, ABCB1); test: inside-out vesicular transport inhibition assay with tritiated probe substrate; type: biochemical

T1 sequence (P08183 whole entry): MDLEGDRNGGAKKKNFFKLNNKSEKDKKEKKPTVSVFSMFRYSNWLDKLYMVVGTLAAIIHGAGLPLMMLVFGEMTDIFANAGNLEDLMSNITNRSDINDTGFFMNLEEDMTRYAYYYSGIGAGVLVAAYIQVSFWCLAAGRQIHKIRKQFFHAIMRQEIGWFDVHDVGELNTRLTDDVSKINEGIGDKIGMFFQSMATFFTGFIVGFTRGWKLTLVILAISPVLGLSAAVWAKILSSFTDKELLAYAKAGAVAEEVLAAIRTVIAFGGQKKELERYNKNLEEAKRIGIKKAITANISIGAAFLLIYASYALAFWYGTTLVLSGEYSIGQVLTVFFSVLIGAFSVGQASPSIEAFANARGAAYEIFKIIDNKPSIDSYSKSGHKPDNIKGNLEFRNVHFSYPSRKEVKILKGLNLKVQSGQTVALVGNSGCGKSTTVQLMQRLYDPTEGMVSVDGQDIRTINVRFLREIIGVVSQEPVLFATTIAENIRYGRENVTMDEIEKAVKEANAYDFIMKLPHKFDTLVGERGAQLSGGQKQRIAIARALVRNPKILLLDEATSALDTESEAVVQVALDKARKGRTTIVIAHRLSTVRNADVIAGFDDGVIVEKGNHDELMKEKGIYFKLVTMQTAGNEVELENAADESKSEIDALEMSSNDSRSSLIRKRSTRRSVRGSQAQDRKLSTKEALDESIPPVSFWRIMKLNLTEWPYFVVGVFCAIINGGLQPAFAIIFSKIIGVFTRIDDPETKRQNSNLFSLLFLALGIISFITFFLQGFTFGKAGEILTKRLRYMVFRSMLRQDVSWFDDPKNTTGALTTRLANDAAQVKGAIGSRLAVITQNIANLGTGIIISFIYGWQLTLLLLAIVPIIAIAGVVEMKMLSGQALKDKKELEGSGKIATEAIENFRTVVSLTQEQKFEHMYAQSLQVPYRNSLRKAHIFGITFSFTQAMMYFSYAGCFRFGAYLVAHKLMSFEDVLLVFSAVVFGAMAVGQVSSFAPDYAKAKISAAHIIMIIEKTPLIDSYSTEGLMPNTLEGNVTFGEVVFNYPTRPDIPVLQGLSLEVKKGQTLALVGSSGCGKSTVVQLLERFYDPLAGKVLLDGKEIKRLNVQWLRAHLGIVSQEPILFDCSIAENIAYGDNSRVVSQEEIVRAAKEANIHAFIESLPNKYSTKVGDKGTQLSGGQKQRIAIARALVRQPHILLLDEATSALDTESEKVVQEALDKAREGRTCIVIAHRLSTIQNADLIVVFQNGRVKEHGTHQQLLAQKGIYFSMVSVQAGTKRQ

IC50 [1] | Compound | IC50 [2]
57 µM | CC#CC(=O)N1CCC[C@H]1c1nc(-c2ccc(C(=O)Nc3ccccn3)cc2)c2c(N)nccn12 [acalabrutinib] | –
– | C=CC(=O)N1CCC[C@@H](n2nc(-c3ccc(Oc4ccccc4)cc3)c3c(N)ncnc32)C1 [ibrutinib] | 6 µM
